# Data taken from patent US20070004653A1, “Stable lyophilized anthracycline glycosides” (priority 2005, published 2007).
# Like-named read-outs stand apart in the source and are kept apart here.
# Legend:
# [1] = Stability tests of Idarubicin HCl, 1% w/v aqueous solution, pH varied with NH4OH or HCl or dissolved as is (aglycone, bis-anhydro); type: physicochemical; settings: for % aglycone / % bis-anhydro: 1% w/v aqueous solution
# Description: Starting product was idarubicin hydrochloride, 1% w/v aqueous solution, the analysis of which is shown in the data reported at t=0. 3% mol of NH4OH with respect to idarubicin hydrochloride was added to the solution at t=0 and the solution was incubated at 20° C. for the indicated time. The results in table 1 show the expected rise over time of the bis-anhydro degradation product at high pH (6.69), with very little increase of aglycone.
# Starting product was idarubicin hydrochloride, 1% w/v aqueous solution, the analysis of which is shown in the data reported at t=0. 1% mol of NH4OH with respect to idarubicin hydrochloride was added to the solution at t=0 and the solution was incubated at 20° C. for the indicated time.
# Starting product was idarubicin hydrochloride, 1% w/v aqueous solution, the analysis of which is shown in the data reported at t=0. 3% mol of NH4OH with respect to idarubicin hydrochloride was added to the solution at t=0 and the solution was incubated at 4° C. for the indicated time.
# Starting product was idarubicin hydrochloride, 1% w/v aqueous solution, the analysis of which is shown in the data reported at t=0.1% mol of NH4OH with respect to idarubicin hydrochloride was added to the solution at t=0 and the solution was incubated at 4° C. for the indicated time.
# Starting product was idarubicin hydrochloride, 1% w/v aqueous solution, the analysis of which is shown in the data reported at t=0. The solution was incubated for the indicated time at 20° C. without additional chemicals. The results in table 5 show the expected rise in bis-anhydro content.
# Starting product was idarubicin hydrochloride, 1% w/v aqueous solution, the analysis of which is shown in the data reported at t=0. The solution was incubated for the indicated time at 4° C. without the addition of additional chemicals.The results in table 6 show a rise in bis-anhydro content, even at 4° C.
# Starting product was idarubicin hydrochloride, 1% w/v aqueous solution. At t=0, the pH of the solution was lowered by the addition of 1% mol of HCl with respect to idarubicin hydrochloride. The solution was incubated for the indicated time at 20° C.
# Starting product was idarubicin hydrochloride, 1% w/v aqueous solution. At t=0, the pH of the solution was lowered by the addition of 1% mol of HCl with respect to idarubicin hydrochloride. The solution was incubated for the indicated time at 4° C.
# Starting product was idarubicin hydrochloride, 1% w/v aqueous solution. At t=0, the pH of the solution was lowered to 3.6 by the addition of 1.3% mol of HCl with respect to idarubicin hydrochloride. The solution was then incubated for the indicated time at 20° C.
# Starting product was idarubicin hydrochloride, 1% w/v aqueous solution. At t=0, the pH of the solution was lowered to 3.55 by the addition of 1.5% mol of HCl with respect to idarubicin hydrochloride. The solution was then incubated for the indicated time at 20° C.
# Starting product was idarubicin hydrochloride, 1% w/v aqueous solution. At t=0, the pH of the solution was lowered to 3.50 by the addition of 1.7% mol of HCl with respect to idarubicin hydrochloride.
# Starting product was idarubicin hydrochloride, 1% w/v aqueous solution. At t=0, the pH of the solution was lowered to 3.03 by the addition of 6.5% mol of HCl with respect to idarubicin hydrochloride.
# Starting product was idarubicin hydrochloride, 1% w/v aqueous solution. At t=0, the pH of the solution was lowered to 2.18 by the addition of 48% mol of HCl with respect to idarubicin hydrochloride.
# [2] = cited from earlier work
# [3] = cited from earlier work; remark: listed apart in the source
# [4] = HCl 1% mol, pH 3.91, 4° C., 169 hr
# [5] = HCl 1% mol, pH 3.91, 4° C., 407 hr
# [6] = HCl 1% mol, pH 3.91, 20° C., 28 hr
# [7] = HCl 1% mol, pH 3.91, 20° C., 168 hr
# [8] = HCl 1% mol, pH 3.91, 20° C., 406 hr
# [9] = HCl to pH = 2.18 (extra HCl = 48% mol), 4° C., 30 hr
# [10] = HCl to pH = 2.18 (extra HCl = 48% mol), 4° C., 119 hr
# [11] = HCl to pH = 2.18 (extra HCl = 48% mol), 20° C., 27 hr
# [12] = HCl to pH = 2.18 (extra HCl = 48% mol), 20° C., 118 hr
# [13] = HCl to pH = 3.03 (extra HCl = 6.5% mol), 20° C., 366 hr
# [14] = HCl to pH = 3.50 (extra HCl = 1.7% mol), 20° C., 366 hr
# [15] = HCl to pH = 3.55 (extra HCl = 1.5% mol), 20° C., 366 hr
# [16] = HCl to pH = 3.60 (extra HCl = 1.3% mol), 20° C., 366 hr
# [17] = NH3 1% mol, pH 6.56, 4° C., 34 hr
# [18] = NH3 1% mol, pH 6.56, 4° C., 56 hr
# [19] = NH3 1% mol, pH 6.56, 4° C., 149 hr
# [20] = NH3 1% mol, pH 6.56, 20° C., 29 hr
# [21] = NH3 1% mol, pH 6.56, 20° C., 54 hr
# [22] = NH3 1% mol, pH 6.56, 20° C., 146 hr
# [23] = NH3 3% mol, pH 6.69, 4° C., 28 hr
# [24] = NH3 3% mol, pH 6.69, 4° C., 129 hr
# [25] = NH3 3% mol, pH 6.69, 20° C., 25 hr
# [26] = NH3 3% mol, pH 6.69, 20° C., 122 hr
# [27] = dissolved as is, pH 5.66, 4° C., 31 hr
# [28] = dissolved as is, pH 5.66, 4° C., 154 hr
# [29] = dissolved as is, pH 5.66, 20° C., 26 hr
# [30] = dissolved as is, pH 5.66, 20° C., 57 hr
# [31] = dissolved as is, pH 5.66, 20° C., 148 hr
smiles,measurement,setting,value
"CC(=O)[C@]1(O)Cc2c(O)c3c(c(O)c2[C@@H](O[C@H]2C[C@@H](N)[C@H](O)C(C)O2)C1)C(=O)c1ccccc1C3=O.Cl (some centres unmarked) [Idarubicin HCl, Idarubicin hydrochloride]",% aglycone,"[1]; HCl 1% mol, pH 3.91, 4° C., 33 hr",0.57%
same,% aglycone,[1]; [4],0.58%
same,% bis-anhydro,[1]; [4],0.06%
same,% aglycone,[1]; [5],0.58%
same,% bis-anhydro,[1]; [5],0.05%
same,% aglycone,"[1]; HCl 1% mol, pH 3.91, 4° C., t = 0",0.59%
same,% aglycone,[1]; [6],0.57%
same,% bis-anhydro,[1]; [6],0.04%
same,% aglycone,[1]; [7],0.58%
same,% bis-anhydro,[1]; [7],0.09%
same,% aglycone,[1]; [8],0.59%
same,% bis-anhydro,[1]; [8],0.25%
same,% aglycone,"[1]; HCl 1% mol, pH 3.91, 20° C., t = 0",0.59%
same,% aglycone,[1]; [9],0.61%
same,% bis-anhydro,[1]; [9],0.06%
same,% aglycone,[1]; [10],0.63%
same,% bis-anhydro,[1]; [10],0.06%
same,% aglycone,"[1]; HCl to pH = 2.18 (extra HCl = 48% mol), 4° C., t = 0",0.59%
same,% aglycone,[1]; [11],0.72%
same,% bis-anhydro,[1]; [11],0.06%
same,% aglycone,[1]; [12],1.03%
same,% bis-anhydro,[1]; [12],0.06%
same,% aglycone,"[1]; HCl to pH = 2.18 (extra HCl = 48% mol), 20° C., t = 0",0.59%
same,% aglycone,"[1]; HCl to pH = 3.03 (extra HCl = 6.5% mol), 4° C., 29 hr",0.61%
same,% aglycone,"[1]; HCl to pH = 3.03 (extra HCl = 6.5% mol), 4° C., 80 hr",0.61%
same,% aglycone,"[1]; HCl to pH = 3.03 (extra HCl = 6.5% mol), 4° C., 364 hr",0.61%
same,% aglycone,"[1]; HCl to pH = 3.03 (extra HCl = 6.5% mol), 4° C., t = 0",0.59%
same,% aglycone,"[1]; HCl to pH = 3.03 (extra HCl = 6.5% mol), 20° C., 22 hr",0.62%
same,% aglycone,"[1]; HCl to pH = 3.03 (extra HCl = 6.5% mol), 20° C., 76 hr",0.63%
same,% aglycone,"[1]; HCl to pH = 3.03 (extra HCl = 6.5% mol), 20° C., 124 hr",0.65%
same,% aglycone,[1]; [13],0.77%
same,% bis-anhydro,[1]; [13],0.04%
same,% aglycone,"[1]; HCl to pH = 3.03 (extra HCl = 6.5% mol), 20° C., t = 0",0.59%
same,% aglycone,"[1]; HCl to pH = 3.50 (extra HCl = 1.7% mol), 20° C., 22 hr",0.59%
same,% aglycone,"[1]; HCl to pH = 3.50 (extra HCl = 1.7% mol), 20° C., 76 hr",0.59%
same,% aglycone,"[1]; HCl to pH = 3.50 (extra HCl = 1.7% mol), 20° C., 124 hr",0.60%
same,% aglycone,[1]; [14],0.61%
same,% bis-anhydro,[1]; [14],0.01%
same,% aglycone,"[1]; HCl to pH = 3.50 (extra HCl = 1.7% mol), 20° C., t = 0",0.59%
same,% aglycone,"[1]; HCl to pH = 3.55 (extra HCl = 1.5% mol), 20° C., 22 hr",0.59%
same,% aglycone,"[1]; HCl to pH = 3.55 (extra HCl = 1.5% mol), 20° C., 76 hr",0.59%
same,% aglycone,"[1]; HCl to pH = 3.55 (extra HCl = 1.5% mol), 20° C., 124 hr",0.60%
same,% aglycone,[1]; [15],0.61%
same,% bis-anhydro,[1]; [15],0.01%
same,% aglycone,"[1]; HCl to pH = 3.55 (extra HCl = 1.5% mol), 20° C., t = 0",0.59%
same,% aglycone,"[1]; HCl to pH = 3.60 (extra HCl = 1.3% mol), 20° C., 22 hr",0.59%
same,% aglycone,"[1]; HCl to pH = 3.60 (extra HCl = 1.3% mol), 20° C., 76 hr",0.59%
same,% aglycone,"[1]; HCl to pH = 3.60 (extra HCl = 1.3% mol), 20° C., 124 hr",0.60%
same,% aglycone,[1]; [16],0.61%
same,% bis-anhydro,[1]; [16],0.01%
same,% aglycone,"[1]; HCl to pH = 3.60 (extra HCl = 1.3% mol), 20° C., t = 0",0.59%
same,% aglycone,[1]; [17],0.58%
same,% bis-anhydro,[1]; [17],0.50%
same,% aglycone,[1]; [18],0.58%
same,% bis-anhydro,[1]; [18],0.74%
same,% aglycone,[1]; [19],0.58%
same,% bis-anhydro,[1]; [19],1.33%
same,% aglycone,"[1]; NH3 1% mol, pH 6.56, 4° C., t = 0",0.59%
same,% aglycone,[1]; [20],0.58%
same,% bis-anhydro,[1]; [20],2.37%
same,% aglycone,[1]; [21],0.58%
same,% bis-anhydro,[1]; [21],3.56%
same,% aglycone,[1]; [22],0.59%
same,% bis-anhydro,[1]; [22],8.03%
same,% aglycone,"[1]; NH3 1% mol, pH 6.56, 20° C., t = 0",0.59%
same,% aglycone,[1]; [23],0.59%
same,% bis-anhydro,[1]; [23],0.63%
same,% aglycone,[1]; [24],0.59%
same,% bis-anhydro,[1]; [24],1.87%
same,% aglycone,"[1]; NH3 3% mol, pH 6.69, 4° C., t = 0",0.59%
same,% aglycone,[1]; [25],0.60%
same,% bis-anhydro,[1]; [25],3.00%
same,% aglycone,[1]; [26],0.61%
same,% bis-anhydro,[1]; [26],13.46%
same,% aglycone,"[1]; NH3 3% mol, pH 6.69, 20° C., t = 0",0.59%
same,% aglycone,[1]; [27],0.57%
same,% bis-anhydro,[1]; [27],0.11%
same,% aglycone,[1]; [28],0.57%
same,% bis-anhydro,[1]; [28],0.30%
same,% aglycone,"[1]; dissolved as is, pH 5.66, 4° C., t = 0",0.59%
same,% aglycone,[1]; [29],0.57%
same,% bis-anhydro,[1]; [29],0.41%
same,% aglycone,[1]; [30],0.58%
same,% bis-anhydro,[1]; [30],0.84%
same,% aglycone,[1]; [31],0.58%
same,% bis-anhydro,[1]; [31],1.20%
same,% aglycone,"[1]; dissolved as is, pH 5.66, 20° C., t = 0",0.59%
same,pH at which found to be most stable,"[1]; lowest amount of aglycon and bis-anhydro impurities, constant over time even at 20° C.",3.5
same,pH in a 0.5% w/v solution in water,[2],5.0-6.5
same,solubility,"[3]; in acetone, chloroform, and methylene chloride",practically insoluble
same,solubility,"[3]; in water, methanol, and other polar solvents like dimethylformamide",soluble
same,solubility,[3]; in water,not very soluble
